Results on one molecule are retold here after patent US20160303000A1, “COMPOSITION AND METHOD FOR REDUCING BACTERIAL BIOFILM FORMATION IN CONNECTION WITH A DENTAL PROCEDURE” (Loma Linda University, priority 2011, published 2016).

For this assay, the system named is mixed culture consortium of three root canal isolates, E. faecalis, L. salivarius and S. gordonii. Briefly: biofilm formation in mini-flow chamber system, CSLM with LIVE/DEAD staining. Format: cell-based. How it is done:
First, a microbial consortium was created using bacterial strains, E. faecalis, L. salivarius and S. gordonii which were isolated from endodontic therapy associated with persistent infections. The strains were stored at −70° C. using skim milk powder (Oxoid, Cambridge, United Kingdom), diluted in double distilled water and were recovered on blood agar in an atmosphere of 5% CO2 in hydrogen at 37° C. for 24 hours. Then, four to five colonies of each strain were transferred into liquid growth medium (Todd-Hewitt broth) and incubated in an atmosphere of 5% CO2 in hydrogen at 37° C. The optical densities (OD600) of the liquid cultures were monitored until exponential growth was reached, that is, until OD600 values of 0.6±0.1. The cells were harvested by centrifugation (3000 g, five minutes at 4° C.), washed in 10 mM PBS and re-suspended in Todd-Hewitt broth to an approximate cell concentration of 1×108 ml^−1. […]
Then, the mini-flow chamber biofilms were inspected. […] CSLM images were analyzed in 2 and 3-D by using the software bioimage_L. […]
Each experiment was repeated three times and the statistical analysis was performed by two-way analysis of variance (ANOVA). Two-way ANOVA detected any significant variation among biofilms formed on surfaces pre-conditioned with the composition according to the present invention, NaOCl and the uncoated controls. […]

`[Na+].[O-]Cl` [NaOCl]: the “viability of biofilm cells (LIVE/DEAD staining)” value (all tests, proportions of green-viable cells) is listed as “not compromised”. Further, the “biovolume of biofilms relative to composition-preconditioned surfaces and uncoated controls” value (preconditioned surfaces) is on record as “intermediate”.
